# Measurements reported in publication PMC8011576 (Nature biomedical engineering, 2020).
# “Also recorded” adds a separate entry of the source. Where two headings read alike, the source gives them in different places.
# What was measured:
# OCT2 = assay: Western blot of OCT2 in Kidney Chip; assay type: cell-based, human; conditions: cisplatin exposure, Western blot vs controls
# [1] = Human clinical nicotine PK; assay type: in vivo; conditions: blood, oral, 16 μM
# Liver Chip = assay: Albumin production in Liver Chip; assay type: cell-based, human; conditions: nicotine exposure, linked chips
# [2] = 396±16 μM nicotine infused into Gut Chip lumen for 84 hrs, MS
# Gut Chip = conditions: nicotine in epithelial lumen
# [3] = test system: intestinal epithelial cells and endothelial cells in Transwell inserts; conditions: nicotine, same intestinal epithelial and endothelial cells
# [4] = test system: first pass human Organ Chips; conditions: nicotine exposure, linked Gut, Liver, Kidney Chips
# CYP3A4 = conditions: nicotine exposure, linked chips
# [5] = cited from earlier work
# [6] = rodent in vivo; ref Yamazaki et al [35]; cited from earlier work
# [7] = human clinical data, ref Digard et al. [28]
Structure (SMILES),OCT2 expression in the Kidney Chip (OCT2),half-life [1] [min],albumin production in the Liver Chip (Liver Chip),maximum level measured in the AV Reservoir [2] [µM],"intestinal barrier function of the Gut Chip, inulin tracer (Gut Chip)","intestinal barrier function of the Gut Chip, Cascade Blue tracer (Gut Chip; P < 0.03)",barrier change by TEER in static Transwell inserts [3],toxicity (LDH release) in first pass human Organ Chips [4],CYP3A4 activity in the Gut Chip (CYP3A4),unbound in vivo ([5]; clinical studies) [%],"Liver Intrinsic Clearance, CLint [5, 7] [ml/min/kg.BW]","Liver Secondary Intrinsic Clearance, CLint, sec [5, 7] [ml/min/kq.BW]","Kidney Renal Clearance, CLR [6] [ml/min/kg.BW]","Liver Intrinsic Clearance, CLint [6] [ml/min/kg.BW]"
"N.N.[Cl][Pt][Cl] [Cisplatin, cisplatin]",increased; also recorded: upregulation,–,–,–,–,–,–,–,–,–,–,–,–,–
"CN1CCC[C@H]1c1cccnc1 [Nicotine, nicotine]",–,10.6,remained unchanged,0.8 ± 0.08,could not detect any effect,significantly increased,did not detect a barrier change,did not detect toxicity,remained unchanged,40,12.5,0.74,5.5,300
